{"source": "patent US20200000873A1", "about": "“METHODS FOR IMPROVING THE COGNITIVE FUNCTIONS OF A SUBJECT” (The Regents of the University of California, priority 2017, published 2020)", "key": {"Brown Norway rats [1]": {"system": "Brown Norway rats", "assay": "Probabilistic reversal learning task (PRLT), single (acute) administration of oxytocin", "assay_type": "in vivo, rat", "text": "(§1) Probabilistic learning, an aspect of executive function, can be assessed in rodents using a probabilistic reversal learning task (PRLT). A PRLT is typically a 1-hour test using two recessed lights in the back of the operant chamber as stimuli (see, FIGS. 2, 3 and 4). After illumination and subsequent extinguishing of the magazine light via nose-poke, a 2 second inter-trial interval occurs, which is then immediately followed by a 10 second period during which two apertures are illuminated wherein the rat can respond via nose-poke. One of the two stimuli is designated the target stimulus, and responses to it are rewarded more frequently (e.g., rewarded 80% of the time) (aperture light extinguished and reward delivered into the magazine) and punished less frequently (e.g., 20% of the time) (aperture light extinguished and house light illuminated for a 4-second timeout period during which no reward was delivered). The other stimulus was designated the non-target stimulus, to which responses are rewarded less frequently (e.g., 20% of the time) and punished more frequently (80% of the time). Initial target and non-target locations are alternated among the testing chambers such that the first target of the session is, for example, the left light in four of the eight chambers, and the right in the others. […] After first criterion acquisition, the target and non-target locations are reversed. The subject then has to recognize that this change, or “switch,” had occurred and adjust its responses accordingly. After another 8 consecutive correct responses, the ratios are switched again. This pattern is repeated for the remainder of the 1-hour session. The number of switches the subject is able to complete within the testing period was the primary outcome variable of PRLT to measure reversal learning. An additional primary outcome measure, trials to first criterion, provided a measure of initial reinforcement learning without the confound of reversal learning included.\n(§2) Several latency measures included mean target latency (millisecond (ms) to respond in the target stimulus), mean non-target latency (ms to respond in the non-target stimulus), and mean reward latency (ms to collect the reward).\n(§3) Rats (Brown Norway rats or Long Evans rats) executive function was tested using a nine-choice operant box (e.g., see FIG. 2). The nine-choice operant box has nine depressions in which a rat can poke its nose into (see FIG. 2), where each depression comprises a light emitting diode (LED). A rat was placed in the box and two of the LEDs were illuminated (e.g., see FIG. 3). One LED, the ‘target’, rewarded a rat's nose poke 80% of the time with food while the other LED, the ‘nontarget’, rewarded a rat's nose poke only 20% of the time. After eight consecutive responses in which the ‘target’ LED was selected, the reward ratios for the two LED's were switched, and the next block of testing was begun. Brown Norway rats were used as test subjects while Long Evans rats were used as controls.\n(§4) Scoring of executive function was based on the number of switches a rat was able to complete within a one-hour test period, as well as the number of block changes a rat can progress through. In particular, the scoring and conclusions of executive function were made as follows:\n(§5) A primary measure of executive function. The number of times the ‘target’ stimulus switches following eight consecutive “correct” responses by the subject. The number of switches a rat is able to complete within a one-hour test period indicates how quickly the rat is able to detect and adjust to reversals. The more switches completed by the rat, the better the executive function of the rat.\n(§6) A primary measure of executive function. Indicates how quickly rat was able to progress through the blocks—the block changes whenever the target switches, so if the subject completed five blocks and is working on the sixth when the one hour testing session ends. […]"}, "humans": {"system": "humans", "conditions": "humans treated with oxytocin, reported; cited from earlier work"}, "Brown Norway rats [2]": {"system": "Brown Norway rats", "assay": "Probabilistic reversal learning task (PRLT) after long-term (21 days) administration of oxytocin", "assay_type": "in vivo, rat", "text": "as §1, §2, §3, §4, §5, §6"}, "[3]": {"conditions": "oxytocin 1.00 mg/kg, Brown Norway rats"}}}
{"molecule": "CC[C@H](C)[C@@H]1NC(=O)[C@H](Cc2ccc(O)cc2)NC(=O)[C@@H](N)CSSC[C@@H](C(=O)N2CCC[C@H]2C(=O)N[C@@H](CC(C)C)C(=O)NCC(N)=O)NC(=O)[C@H](CC(N)=O)NC(=O)[C@H](CCC(N)=O)NC1=O", "note": "[oxytocin]", "values": [{"measurement": "executive function, effect of dose", "setting": "Brown Norway rats [1]; BN rats, 1.00 mg/kg vs. lower doses 0.04 mg/kg and 0.20 mg/kg", "result": "dose dependent"}, {"measurement": "number of switches in the PRLT", "setting": "Brown Norway rats [1]; acute OT 0.04 mg/kg, BN rats vs. vehicle-treated LE rats", "result": "fewer switches"}, {"measurement": "total trials to initial criterion", "setting": "Brown Norway rats [1]; acute OT 1 mg/k/g, BN rats vs. both vehicle-treated BN and LE rats", "result": "reduced"}, {"measurement": "total number of switches completed in the PRLT", "setting": "Brown Norway rats [1]; acute OT 1 mg/kg, BN rats vs. vehicle", "result": "increased"}, {"measurement": "probabilistic learning of subjects", "setting": "Brown Norway rats [1]; administration of oxytocin", "result": "significantly improved"}, {"measurement": "improvement in executive function", "setting": "Brown Norway rats [1]; [3]", "result": "significant"}, {"measurement": "number of switches", "setting": "Brown Norway rats [1]; oxytocin administered to Brown Norway rats, dose not stated", "result": "increased"}, {"measurement": "executive function of the animal subjects", "setting": "Brown Norway rats [1]; oxytocin administered to animal subjects", "result": "significantly improved"}, {"measurement": "cognitive performance and memory", "setting": "humans", "result": "Impairments"}, {"measurement": "trials to first criterion", "setting": "Brown Norway rats [2]; 1 mg/kg OT vs. vehicle in BN rats, long-term administration", "result": "appears to reduce"}, {"measurement": "number of switches in the PRLT", "setting": "Brown Norway rats [2]; BN rats previously treated with 0.04 mg/kg OT compared with LE rats", "result": "LE rats exhibited more switches"}, {"measurement": "number of switches in the PRLT", "setting": "Brown Norway rats [2]; BN rats previously treated with 0.2 mg/kg OT compared with LE rats", "result": "LE rats exhibited more switches"}, {"measurement": "number of switches in the PRLT", "setting": "Brown Norway rats [2]; BN rats treated with 1 mg/kg OT vs. vehicle-treated BN rats, long-term administration", "result": "significantly more switches"}, {"measurement": "executive function after discontinuation of OT", "setting": "Brown Norway rats [2]; BN rats, 1.0 mg/kg OT for 21 days, tested approximately one week or more after discontinuation", "result": "persistent improvement"}, {"measurement": "time post treatment at which improvement of executive function was seen", "setting": "Brown Norway rats [2]; [3]", "result": 7, "unit": "days"}]}
